Experimental data reported in patent US20260109707A1, “HETEROBIFUNCTIONAL COMPOUNDS AND METHODS OF TREATING DISEASE” (Halda Therapeutics OpCo. Inc., priority 2022, published 2026).

Legend:
T47D cells = assay: Cellular growth inhibition assay for T47D cells (CellTiter-Glo, 72 hours); assay type: cell-based, human; details: Homo sapiens, T47D, 72 h, 72 hours treatment
Summary of the method: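 Growth inhibition as GI50, fitted with four parameters to CellTiter-Glo luminescence after 72 h of compound exposure (0.5% DMSO). Cells were T47D, grown in insulin-supplemented (0.2 units/mL) DMEM with 10% FBS and treated one day post-seeding.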

[1] = tested on: T-Rex 293 cell line SC3 cells having increased expression of androgen receptor protein due to exposure to doxycycline; assay: Cellular growth inhibition assay, T-Rex 293 SC3 cells with doxycycline (CellTiter-Glo, 72 hours); assay type: cell-based; details: 72 h, T-Rex 293 SC3 cells with increased androgen receptor expression due to doxycycline (10 ng/mL)
Summary of the method: (§1)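 Doxycycline (10 ng/mL) was either included or omitted to toggle wild-type androgen receptor expression in SC3 cells, a T-Rex 293 clone, grown in stripped-serum, phenol red-free medium. After 72 hours with compound, viable cells were quantified by CellTiter-Glo 2.0.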

[2] = tested on: T-Rex 293 cell line SC3 cells lacking increased expression of androgen receptor protein; assay: Cellular growth inhibition assay, T-Rex 293 SC3 cells without doxycycline (CellTiter-Glo, 72 hours); assay type: cell-based; details: 72 h, T-Rex 293 cell line SC3 cells not exposed to doxycycline (lacking increased androgen receptor expression)
Summary of the method: as §1

SMILES	GI50 (T47D cells) [nM]	GI50 [1] [nM]	GI50 [2] [nM]
CCNC(=O)C[C@@H]1N=C(c2ccc(N3CC4(C3)CN(c3ccc(C(=O)N[C@H]5CC[C@H](Oc6ccc(C#N)c(Cl)c6)CC5)nn3)C4)cc2)c2c(sc(C)c2C)-n2c(C)nnc21 [I-24]	< 500	500 to 1500	500 to 1500
CCNC(=O)C[C@@H]1N=C(c2ccc(OCCOCCOC3CCN(c4ccc(C(=O)N[C@H]5CC[C@H](Oc6ccc(C#N)c(Cl)c6)CC5)nn4)CC3)cc2)c2c(sc(C)c2C)-n2c(C)nnc21 [I-10]	< 500	< 500	500 to 1500
CCNC(=O)C[C@@H]1N=C(c2ccc(OCCOC3CCN(c4ccc(C(=O)N[C@H]5CC[C@H](Oc6ccc(C#N)c(Cl)c6)CC5)nn4)CC3)cc2)c2c(sc(C)c2C)-n2c(C)nnc21 [I-8]	< 500	< 500	< 500
CCNC(=O)C[C@@H]1N=C(c2ccc(N3CCC(OC4CCN(c5ccc(C(=O)N[C@H]6CC[C@H](Oc7ccc(C#N)c(Cl)c7)CC6)nn5)CC4)CC3)cc2)c2c(sc(C)c2C)-n2c(C)nnc21 [I-44]		< 500	500 to 1500
CCNC(=O)C[C@@H]1N=C(c2ccc(CC3CCN(c4ccc(C(=O)N[C@H]5CC[C@H](Oc6ccc(C#N)c(Cl)c6)CC5)nn4)CC3)cc2)c2c(sc(C)c2C)-n2c(C)nnc21 [I-20]	500 to 1500	< 500	< 500
CCNC(=O)C[C@@H]1N=C(c2ccc(CCCOC3CCN(c4ccc(C(=O)N[C@H]5CC[C@H](Oc6ccc(C#N)c(Cl)c6)CC5)nn4)CC3)cc2)c2c(sc(C)c2C)-n2c(C)nnc21 [I-17]	< 500	< 500	< 500
CCNC(=O)C[C@@H]1N=C(c2ccc(OCC3CN(c4ccc(C(=O)N[C@H]5CC[C@H](Oc6ccc(C#N)c(Cl)c6)CC5)nn4)C3)cc2)c2c(sc(C)c2C)-n2c(C)nnc21 [I-29]	< 500	< 500	500 to 1500
CCNC(=O)C[C@@H]1N=C(c2ccc(OCCCN(C)c3ccc(C(=O)N[C@H]4CC[C@H](Oc5ccc(C#N)c(Cl)c5)CC4)nn3)cc2)c2c(sc(C)c2C)-n2c(C)nnc21 [I-48]	500 to 1500	< 500	500 to 1500
Cc1sc2c(c1C)C(c1ccc(Cl)cc1)=N[C@@H](CC(=O)NCCOC1CCN(c3ccc(C(=O)N[C@H]4CC[C@H](Oc5ccc(C#N)c(Cl)c5)CC4)nn3)CC1)c1nnc(C)n1-2 [I-1, N-[4-(3-chloro-4-cyano-phenoxy)cyclohexyl]-6-[4-[2-[[2-[(9S)-7-(4-chlorophenyl)-4,5,13-trimethyl-3-thia-1,8,11,12-tetrazatricyclo[8.3.0.0^2,6]trideca-2(6),4,7,10,12-pentaen-9-yl]acetyl]amino]ethoxy]-1-piperidyl]pyridazine-3-carboxamide]	< 500	500 to 1500	500 to 1500
Cc1sc2c(c1C)C(c1ccc(Cl)cc1)=N[C@@H](CC(=O)NCCOCCOCCOC1CCN(c3ccc(C(=O)N[C@H]4CC[C@H](Oc5ccc(C#N)c(Cl)c5)CC4)nn3)CC1)c1nnc(C)n1-2 [I-2, N-[4-(3-chloro-4-cyano-phenoxy)cyclohexyl]-6-[4-[2-[2-[2-[[2-[(9S)-7-(4-chlorophenyl)-4,5,13-trimethyl-3-thia-1,8,11,12-tetrazatricyclo[8.3.0.0^2,6]trideca-2(6),4,7,10,12-pentaen-9-yl]acetyl]amino]ethoxy]ethoxy]ethoxy]-1-piperidyl]pyridazine-3-carboxamide]	1500 to 3000	< 500	500 to 1500
